Reference: patent US20230025510A1, “BIARYL ETHER-TYPE QUINAZOLINE DERIVATIVES” (DAIICHI SANKYO COMPANY, LIMITED, priority 2018, published 2023)

Assays:
Type in all cases: cell-based
Ba/F3-Mock cells = experiment: Cell proliferation suppression test (CellTiter-Glo, GI50), Ba/F3-Mock; details: Mus musculus, BaF3, 72 h, 5 ng/mL IL-3, 3 days, N=4
Experimental: (§1) Cell proliferation suppression test Ba/F3-Mock, Ba/F3-EGFR WT, Ba/F3-EGFR ins. ASV, and Ba/F3-EGFR ins. SVD cell lines were cultured based on a culture medium of 10% FBS-containing RPMI 1640 supplemented with 1.5 ug/mL puromycin, and 5 ng/mL IL-3 and 100 ng/mL of EGF were further added to the culture solution for Ba/F3-Mock and Ba/F3-EGFR WT, respectively. The cells were cultured in a CO2 incubator set at 37° C., 5% CO2. Specimens prepared by dilution were seeded into 384-well tissue culture plates with Echo555 (Labcyte Inc.), and the cells were seeded thereto at 400 cells/well for Ba/F3-Mock, Ba/F3-EGFR WT, and Ba/F3-EGFR ins. SVD and at 200 cells/well for Ba/F3-EGFR ins. ASV (day 0), then they were cultured for an additional 3 days. On the day of the compound addition (day 0) and 3 days after the compound addition (day 3), ATP quantity was measured with CellTiter-Glo (registered trademark) 2.0 (Promega Corporation.), and used as an indicator of cell quantity (N=4). In the test, puromycin-free culture medium was used. Concentrations at which cell proliferation from day 0 to day 3 was inhibited by 50% (GIso) were calculated with EXCEL.

[1] = system: Ba/F3-EGFR ins. ASV cells; experiment: Cell proliferation suppression test (CellTiter-Glo, GI50), Ba/F3-EGFR ins. ASV; details: Mus musculus, 72 h, 3 days, N=4
Experimental: as §1

Ba/F3-EGFR WT cells = experiment: Cell proliferation suppression test (CellTiter-Glo, GI50), Ba/F3-EGFR WT; details: Mus musculus, 72 h, 100 ng/mL EGF, 3 days, N=4
Experimental: as §1

[2] = system: Ba/F3-EGFR ins. SVD cells; experiment: Cell proliferation suppression test (CellTiter-Glo, GI50), Ba/F3-EGFR ins. SVD; details: Mus musculus, 72 h, 3 days, N=4
Experimental: as §1

GI50 [1] [nM] | GI50 (Ba/F3-EGFR WT cells) [nM] | GI50 [2] [nM] | Structure (SMILES) | GI50 (Ba/F3-Mock cells) [nM]
12.2 | 161 | 58.7 | COc1cc2ncnc(Nc3ccc(Oc4cccc(-c5nnc(C)o5)c4)cc3F)c2cc1NC(=O)/C=C/CN(C)C [Example 39, (2E)-4-(Dimethylamino)-N-(4-{2-fluoro-4-[3-(5-methyl-1,3,4-oxadiazol-2-yl)phenoxy]anilino}-7-methoxyquinazolin-6-yl)but-2-enamide] | 1150
11 | 229 | 16.7 | CCOc1cc2ncnc(Nc3ccc(Oc4cccc(-c5nnc(C)o5)c4)cc3F)c2cc1NC(=O)/C=C/CN[C@@H]1CCOC1 [Example 53, (2E)-N-(7-Ethoxy-4-{2-fluoro-4-[3-(5-methyl-1,3,4-oxadiazol-2-yl)phenoxy]anilino}quinazolin-6-yl)-4-[(3R)-tetrahydrofuran-3-ylamino]but-2-enamide] | 2950
10.5 | 163 | 5.7 | C=CC(=O)N1CCC(Oc2cc3c(Nc4ccc(Oc5nc(-c6ccc(C)nc6)cs5)cc4F)ncnc3cc2OC)CC1 [Example 37, 1-(4-{[4-(2-Fluoro-4-{[4-(6-methylpyridin-3-yl)-1,3-thiazol-2-yl]oxy}anilino)-7-methoxyquinazolin-6-yl]oxy}piperidin-1-yl)prop-2-en-1-one] | > 10000
11.3 | 290 | 12.5 | C=CC(=O)N1CCC(Oc2cc3c(Nc4ccc(Oc5nc(-c6cnc(C)c(F)c6)cs5)cc4F)ncnc3cc2OC)CC1 [Example 11, 1-(4-{[4-(2-Fluoro-4-{[4-(5-fluoro-6-methylpyridin-3-yl)-1,3-thiazol-2-yl]oxy}anilino)-7-methoxyquinazolin-6-yl]oxy}piperidin-1-yl)prop-2-en-1-one] | > 10000
49.5 | 129 | 81.8 | COc1cc2ncnc(Nc3ccc(Oc4nc(-c5nnc(C6CC6)o5)cs4)cc3F)c2cc1NC(=O)/C=C/CN1CC[C@@H](OC)C1 [Example 63, (2E)-N-[4-(4-{[4-(5-Cyclopropyl-1,3,4-oxadiazol-2-yl)-1,3-thiazol-2-yl]oxy}-2-fluoroanilino)-7-methoxyquinazolin-6-yl]-4-[(3R)-3-methoxypyrrolidin-1-yl]but-2-enamide] | 1060
44.8 | 646 | 29.8 | C=CC(=O)N1CCC(Oc2cc3c(Nc4ccc(Oc5nc(-c6cnc(C)c(Cl)c6)cs5)cc4F)ncnc3cc2OC)CC1 [Example 12, 1-(4-{[4-(4-{[4-(5-Chloro-6-methylpyridin-3-yl)-1,3-thiazol-2-yl]oxy}-2-fluoroanilino)-7-methoxyquinazolin-6-yl]oxy}piperidin-1-yl)prop-2-en-1-one] | > 10000
10.3 | 252 | 6.7 | COc1cc2ncnc(Nc3ccc(Oc4nn(CC(=O)NC(C)(C)C)cc4F)cc3F)c2cc1NC(=O)/C=C/CN1CCC(F)C1 (racemic) [Example 58, rac-(2E)-N-{4-[4-({1-[2-(tert-Butylamino)-2-oxoethyl]-4-fluoro-1H-pyrazol-3-yl}oxy)-2-fluoroanilino]-7-methoxyquinazolin-6-yl}-4-(3-fluoropyrrolidin-1-yl)but-2-enamide] | 4010
5.1 | 103 | 17.7 | CCOc1cc2ncnc(Nc3ccc(Oc4cccc(-c5nnc(CC)o5)c4)cc3F)c2cc1NC(=O)/C=C/CN(C)C [Example 42, (2E)-4-(Dimethylamino)-N-(7-ethoxy-4-{4-[3-(5-ethyl-1,3,4-oxadiazol-2-yl)phenoxy]-2-fluoroanilino}quinazolin-6-yl)but-2-enamide] | 764
14.5 | 102 | 12.8 | C=CC(=O)N1CCC(Oc2cc3c(Nc4ccc(Oc5ccn(C(=O)NC6(C(F)(F)F)CC6)n5)cc4F)ncnc3cc2OC)CC1 [Example 22, 3-{3-Fluoro-4-[(7-methoxy-6-{[1-(prop-2-enoyl)piperidin-4-yl]oxy}quinazolin-4-yl)amino]phenoxy}-N-[1-(trifluoromethyl)cyclopropyl]-1H-pyrazole-1-carboxamide] | 8620
11.9 | 212 | 7.6 | C=CC(=O)N1CCC(Oc2cc3c(Nc4ccc(Oc5ccn(-c6cnc(C7CC7)nc6)n5)cc4F)ncnc3cc2OC)CC1 [Example 10, 1-(4-{[4-(4-{[1-(2-cyclopropylpyrimidin-5-yl)-1H-pyrazol-3-yl]oxy}-2-fluoroanilino)-7-methoxyquinazolin-6-yl]oxy}piperidin-1-yl)prop-2-en-1-one] | 6170
14.8 | 213 | 12.9 | C=CC(=O)N1CCC(Oc2cc3c(Nc4ccc(Oc5nc(-c6ccc(OC)nc6)cs5)cc4F)ncnc3cc2OC)CC1 [Example 35, 1-(4-{[4-(2-Fluoro-4-{[4-(6-methoxypyridin-3-yl)-1,3-thiazol-2-yl]oxy}anilino)-7-methoxyquinazolin-6-yl]oxy}piperidin-1-yl)prop-2-en-1-one] | > 10000
13.7 | 429 | 13.5 | C=CC(=O)N1CCC(Oc2cc3c(Nc4ccc(Oc5ccn(-c6cnc(OC)nc6)n5)cc4F)ncnc3cc2OC)CC1 [Example 14, 1-(4-{[4-(2-Fluoro-4-{[1-(2-methoxypyrimidin-5-yl)-1H-pyrazol-3-yl]oxy}anilino)-7-methoxyquinazolin-6-yl]oxy}piperidin-1-yl)prop-2-en-1-one] | 5950
5.5 | 69.8 | 14.1 | COc1cc2ncnc(Nc3ccc(Oc4cccc(-c5nnc(C(C)C)o5)c4)cc3F)c2cc1NC(=O)/C=C/CN(C)C [Example 43, (2E)-4-(Dimethylamino)-N-[4-(2-fluoro-4-{3-[5-(propan-2-yl)-1,3,4-oxadiazol-2-yl]phenoxy}anilino)-7-methoxyquinazolin-6-yl]but-2-enamide] | 806
11.4 | 320 | 11.3 | C=CC(=O)N1CCC(Oc2cc3c(Nc4ccc(Oc5nc(-c6cnc(OC)nc6)cs5)cc4F)ncnc3cc2OC)CC1 [Example 16, 1-(4-{[4-(2-Fluoro-4-{[4-(2-methoxypyrimidin-5-yl)-1,3-thiazol-2-yl]oxy}anilino)-7-methoxyquinazolin-6-yl]oxy}piperidin-1-yl)prop-2-en-1-one] | > 10000
23.5 | 386 | 20.2 | C=CC(=O)N1CCC(Oc2cc3c(Nc4ccc(Oc5cccc(-c6nnc(C)o6)c5)cc4F)ncnc3cc2OCF)CC1 [Example 19, 1-(4-{[7-(Fluoromethoxy)-4-{2-fluoro-4-[3-(5-methyl-1,3,4-oxadiazol-2-yl)phenoxy]anilino}quinazolin-6-yl]oxy}piperidin-1-yl)prop-2-en-1-one] | 4920
12.2 | 77.3 | 5.5 | C=CC(=O)N1CCC(Oc2cc3c(Nc4ccc(Oc5nc(C(=O)NC(C)(C)C)cs5)cc4F)ncnc3cc2OC)CC1 [Example 15, N-tert-Butyl-2-{3-fluoro-4-[(7-methoxy-6-{[1-(prop-2-enoyl)piperidin-4-yl]oxy}quinazolin-4-yl)amino]phenoxy}-1,3-thiazole-4-carboxamide] | > 10000
8.5 | 635 | 4.6 | COc1cc2ncnc(Nc3ccc(Oc4nn(CC(=O)NC(C)(C)C)cc4F)cc3Cl)c2cc1NC(=O)/C=C/CN1CC[C@@H](F)C1 [Example 56, (2E)-N-{4-[4-({1-[2-(tert-Butylamino)-2-oxoethyl]-4-fluoro-1H-pyrazol-3-yl}oxy)-2-chloroanilino]-7-methoxyquinazolin-6-yl}-4-[(3R)-3-fluoropyrrolidin-1-yl]but-2-enamide] | 4680
10.3 | 186 | 8 | C=CC(=O)N1CCC(Oc2cc3c(Nc4ccc(Oc5cccc(-c6nnc(C)o6)c5)cc4F)ncnc3cc2OC)CC1 [Example 17, 1-{4-[(4-{2-Fluoro-4-[3-(5-methyl-1,3,4-oxadiazol-2-yl)phenoxy]anilino}-7-methoxyquinazolin-6-yl)oxy]piperidin-1-yl}prop-2-en-1-one] | 8220
16.4 | 145 | 73.1 | COc1cc2ncnc(Nc3ccc(Oc4nc(C(=O)NC(C)(C)C)cs4)cc3F)c2cc1NC(=O)/C=C/CN(C)C [Example 47, N-tert-Butyl-2-{4-[(6-{[(2E)-4-(dimethylamino)but-2-enoyl]amino}-7-methoxyquinazolin-4-yl)amino]-3-fluorophenoxy}-1,3-thiazole-4-carboxamide] | 816
11.8 | 42.4 | 9.9 | C=CC(=O)N1CCC(Oc2cc3c(Nc4ccc(Oc5ccn(C(=O)N[C@H](C)C(F)(F)F)n5)cc4F)ncnc3cc2OC)CC1 [Example 24, 3-{3-Fluoro-4-[(7-methoxy-6-{[1-(prop-2-enoyl)piperidin-4-yl]oxy}quinazolin-4-yl)amino]phenoxy}-N-[(2R)-1,1,1-trifluoropropan-2-yl]-1H-pyrazole-1-carboxamide] | 6470
